Data as given in ChEMBL document CHEMBL4406808, “Synthesis and assessment of phenylacrylamide derivatives as potential anti-oxidant and anti-inflammatory agents” (Eur J Med Chem, 2019).
Each block holds one compound with its values, some of them ahead of it. Active and inactive are the calls of the source. No cut-off for these calls is given here.

Legend:
HBZY-1 [1] = assay: Cytoprotection activity against H2O2-induced cell death in rat HBZY-1 cells assessed as cell viability at 6 uM preincubated with compound for 2 hrs followed by H2O2 addition and measured after 24 hrs by MTT assay (reference value: 62.1%); assay type: functional; details: read-out: Activity
HBZY-1 [2] = assay: Cytoprotection activity against H2O2-induced cell death in rat HBZY-1 cells assessed as increase in cell viability preincubated with compound for 2 hrs followed by H2O2 addition and measured after 24 hrs by MTT assay; assay type: functional, cell-based
HBZY-1 [3] = assay: Antioxidant activity in rat HBZY-1 cells assessed as reduction in H2O2-induced intracellular ROS accumulation incubated with compound prior to H2O2 addition by DCFH-DA based flow cytometry; assay type: functional, cell-based
[4] = target: T1, Nuclear factor erythroid 2-related factor 2 (Homo sapiens) (UniProt Q16236); assay: Activation of Nrf2 (unknown origin) expressed in HEK293 cells co-transfected with ARE luciferase reporter plasmid after 16 hrs by dual luciferase reporter gene assay; assay type: cell-based
T1 sequence (whole entry): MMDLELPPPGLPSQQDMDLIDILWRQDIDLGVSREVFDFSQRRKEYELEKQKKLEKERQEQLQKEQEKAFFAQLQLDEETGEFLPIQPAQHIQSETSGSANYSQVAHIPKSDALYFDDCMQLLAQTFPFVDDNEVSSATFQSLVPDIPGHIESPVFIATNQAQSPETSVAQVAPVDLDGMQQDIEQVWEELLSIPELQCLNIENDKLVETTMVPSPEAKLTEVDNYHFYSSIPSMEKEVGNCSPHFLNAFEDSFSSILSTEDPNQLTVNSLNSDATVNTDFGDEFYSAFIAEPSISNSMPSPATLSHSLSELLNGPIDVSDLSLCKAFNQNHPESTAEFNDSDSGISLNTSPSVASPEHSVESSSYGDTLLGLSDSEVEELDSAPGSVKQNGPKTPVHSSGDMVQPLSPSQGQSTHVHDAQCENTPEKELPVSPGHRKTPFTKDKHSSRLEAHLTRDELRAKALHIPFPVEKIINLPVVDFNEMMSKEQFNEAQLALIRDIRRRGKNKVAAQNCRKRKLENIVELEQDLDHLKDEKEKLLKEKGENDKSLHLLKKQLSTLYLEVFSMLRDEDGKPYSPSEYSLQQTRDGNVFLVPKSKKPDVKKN

[5] = target: Kelch-like ECH-associated protein 1 (Rattus norvegicus) (UniProt P57790); assay: Binding affinity to Keap1 in rat HBZY-1 cells assessed as induction of Nrf2 nuclear translocation by measuring increase in ratio of nuclear to cytosolic Nrf2 level by Western blot analysis; assay type: cell-based
[6] = target: Kelch-like ECH-associated protein 1 (Rattus norvegicus) (UniProt P57790); assay: Binding affinity to Keap1 in rat HBZY-1 cells assessed as induction of Keap1/Nrf2 signaling by measuring increase in NQO-1 protein expression by Western blot analysis; assay type: cell-based
[7] = target: Kelch-like ECH-associated protein 1 (Rattus norvegicus) (UniProt P57790); assay: Binding affinity to Keap1 in rat HBZY-1 cells assessed as induction of Keap1/Nrf2 signaling by measuring increase in HO-1 protein expression by Western blot analysis; assay type: cell-based
[8] = target: Kelch-like ECH-associated protein 1 (Rattus norvegicus) (UniProt P57790); assay: Binding affinity to Keap1 in rat HBZY-1 cells assessed as induction of Keap1/Nrf2 signaling by measuring increase in GCLM protein expression by Western blot analysis; assay type: cell-based
[9] = target: Kelch-like ECH-associated protein 1 (Rattus norvegicus) (UniProt P57790); assay: Binding affinity to Keap1 in rat HBZY-1 cells assessed as induction of Keap1/Nrf2 signaling by measuring increase in GCLC protein expression by Western blot analysis; assay type: cell-based
HBZY-1 [10] = assay: Cytoprotection against H2O2-induced cell death in rat HBZY-1 cells assessed as increase in cell viability at 6 uM preincubated for 2 hrs followed by H2O2 addition and measured after 24 hrs in presence of Nrf2 inhibitor TRG by MTT assay; assay type: functional, cell-based
HBZY-1 [11] = assay: Cytoprotection against H2O2-induced cell death in rat HBZY-1 cells assessed as increase in cell viability at 6 uM preincubated for 2 hrs followed by H2O2 addition and measured after 24 hrs in presence of HO-1 inhibitor ZnPP by MTT assay; assay type: functional, cell-based
HBZY-1 [12] = assay: Cytoprotection against H2O2-induced cell death in rat HBZY-1 cells assessed as increase in cell viability at 6 uM preincubated for 2 hrs followed by H2O2 addition and measured after 24 hrs in presence of GCL inhibitor BSO by MTT assay; assay type: functional, cell-based
HBZY-1 [13] = assay: Antiinflammatory activity in rat HBZY-1 cells assessed as reduction in LPS-induced NO production preincubated for 30 mins followed by LPS stimulation and measured after 24 hrs by Griess assay; assay type: functional, cell-based
HBZY-1 [14] = assay: Antiinflammatory activity in rat HBZY-1 cells assessed as reduction in nitric oxide production at 6 uM preincubated for 30 mins followed by LPS stimulation and measured after 24 hrs in presence of Nrf2 inhibitor TRG by Griess assay; assay type: functional, cell-based
HBZY-1 [15] = assay: Antiinflammatory activity in rat HBZY-1 cells assessed as reduction in NO production at 6 uM preincubated for 30 mins followed by LPS stimulation and measured after 24 hrs in presence of HO-1 inhibitor ZnPP by Griess assay; assay type: functional, cell-based
[16] = target: Kelch-like ECH-associated protein 1 (Rattus norvegicus) (UniProt P57790); assay: (§1) Binding affinity to Keap1 in rat HBZY-1 cells transfected with pNF-kB-Luc/pRL-CMV assessed as induction of Keap1/Nrf2 signaling by measuring reduction in LPS-induced NFkappaB activation preincubated for 30 mins followed by LPS stimulation and measured after 12 hrs by luciferase reporter gene assay; assay type: cell-based
[17] = target: Kelch-like ECH-associated protein 1 (Rattus norvegicus) (UniProt P57790); assay: as §1, with “activation at 6 uM” for “activation”, “hrs in presence of Nrf2 inhibitor TRG” for “hrs”; assay type: cell-based
[18] = target: Kelch-like ECH-associated protein 1 (Rattus norvegicus) (UniProt P57790); assay: as §1, with “activation at 6 uM” for “activation”, “hrs in presence of HO-1 inhibitor ZnPP” for “hrs”; assay type: cell-based
[19] = target: Kelch-like ECH-associated protein 1 (Rattus norvegicus) (UniProt P57790); assay: Binding affinity to Keap1 in rat HBZY-1 cells assessed as disruption of Keap1/Nrf2 complex by measuring increase in Nrf2 expression by Western blot analysis; assay type: cell-based
[20] = target: Kelch-like ECH-associated protein 1 (Rattus norvegicus) (UniProt P57790); assay: Binding affinity to Keap1 in rat HBZY-1 cells assessed as disruption of Keap1/Nrf2 complex by measuring Nrf2 expression in presence of DTT by Western blot analysis; assay type: cell-based
[21] = target: Kelch-like ECH-associated protein 1 (Rattus norvegicus) (UniProt P57790); assay: Binding affinity to Keap1 in rat HBZY-1 cells assessed as disruption of Keap1/Nrf2 complex by measuring reduction in Keap1 protein expression by Western blot analysis; assay type: cell-based
[22] = target: Kelch-like ECH-associated protein 1 (Rattus norvegicus) (UniProt P57790); assay: Binding affinity to Keap1 in rat HBZY-1 cells assessed as disruption of Keap1/Nrf2 complex by measuring Keap1 expression in presence of DTT by Western blot analysis; assay type: cell-based
HBZY-1 [23] = assay: Cytotoxicity against rat HBZY-1 cells assessed as reduction in cell viability after 2 hrs by MTT assay; assay type: cell-based; details: HBZY-1, 2 h
[24] = target: Kelch-like ECH-associated protein 1 (Rattus norvegicus) (UniProt P57790); assay: Binding affinity to Keap1 in rat HBZY-1 cells assessed as induction of Keap1/Nrf2 signaling by measuring induction of Nrf2 nuclear translocation by measuring increase in ratio of nuclear to cytosolic Nrf2 level at 6 uM by Western blot analysis; assay type: cell-based; details: TDE = time-dependent effect
[25] = target: Kelch-like ECH-associated protein 1 (Rattus norvegicus) (UniProt P57790); assay: Binding affinity to Keap1 in rat HBZY-1 cells assessed as induction of Keap1/Nrf2 signaling by measuring increase in NQO-1 protein expression at 6 uM by Western blot analysis; assay type: cell-based; details: TDE = time-dependent effect
[26] = target: Kelch-like ECH-associated protein 1 (Rattus norvegicus) (UniProt P57790); assay: Binding affinity to Keap1 in rat HBZY-1 cells assessed as induction of Keap1/Nrf2 signaling by measuring increase in HO-1 protein expression at 6 uM by Western blot analysis; assay type: cell-based; details: TDE = time-dependent effect
[27] = target: Kelch-like ECH-associated protein 1 (Rattus norvegicus) (UniProt P57790); assay: Binding affinity to Keap1 in rat HBZY-1 cells assessed as induction of Keap1/Nrf2 signaling by measuring increase in GCLM protein expression at 6 uM by Western blot analysis; assay type: cell-based; details: TDE = time-dependent effect
[28] = target: Kelch-like ECH-associated protein 1 (Rattus norvegicus) (UniProt P57790); assay: Binding affinity to Keap1 in rat HBZY-1 cells assessed as induction of Keap1/Nrf2 signaling by measuring increase in GCLC protein expression at 6 uM by Western blot analysis; assay type: cell-based; details: TDE = time-dependent effect

Kelch-like ECH-associated protein 1 (Rattus norvegicus), sequence (P57790 whole entry): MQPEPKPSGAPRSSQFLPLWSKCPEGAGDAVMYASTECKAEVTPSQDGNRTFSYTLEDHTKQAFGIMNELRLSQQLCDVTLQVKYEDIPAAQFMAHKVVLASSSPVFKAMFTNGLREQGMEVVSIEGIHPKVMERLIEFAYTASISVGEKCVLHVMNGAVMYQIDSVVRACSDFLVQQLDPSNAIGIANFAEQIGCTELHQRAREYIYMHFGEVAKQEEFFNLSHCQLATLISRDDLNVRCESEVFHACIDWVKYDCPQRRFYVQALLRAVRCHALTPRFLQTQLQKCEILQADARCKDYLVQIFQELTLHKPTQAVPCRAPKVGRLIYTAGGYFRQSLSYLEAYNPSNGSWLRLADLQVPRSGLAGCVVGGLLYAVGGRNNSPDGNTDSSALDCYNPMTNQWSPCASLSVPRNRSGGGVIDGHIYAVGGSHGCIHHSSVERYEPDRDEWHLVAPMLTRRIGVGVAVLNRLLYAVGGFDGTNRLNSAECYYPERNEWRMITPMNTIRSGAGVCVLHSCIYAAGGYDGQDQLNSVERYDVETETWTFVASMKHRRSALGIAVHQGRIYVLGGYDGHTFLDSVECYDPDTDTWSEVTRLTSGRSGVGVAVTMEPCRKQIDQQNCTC

Activity [4]: Dose-dependent effect
Activity [5]: Dose-dependent effect
Activity [6]: Dose-dependent effect
Activity [7]: Dose-dependent effect
Activity [8]: Dose-dependent effect
Activity [9]: Dose-dependent effect
Activity [16]: Dose-dependent effect
Activity [17]: inactive
Activity [18]: inactive
Activity [19]: Active
Activity [20]: inactive
Activity [21]: Active
Activity [22]: inactive
Activity [24]: Tde
Activity [25]: Tde
Activity [26]: Tde
Activity [27]: Tde
Activity [28]: Tde
Compound: COc1ccccc1NC(=O)/C(C#N)=C/c1ccccc1C(F)(F)F
viability at 6 µM (HBZY-1 [1]): 65.6 to 96.4%
Activity (HBZY-1 [2]): Dose-dependent effect
Activity (HBZY-1 [3]): Dose-dependent effect
Activity (HBZY-1 [10]): inactive
Activity (HBZY-1 [11]): inactive
Activity (HBZY-1 [12]): inactive
Activity (HBZY-1 [13]): Dose-dependent effect
Activity (HBZY-1 [14]): inactive
Activity (HBZY-1 [15]): inactive
IC50 (HBZY-1 [23]): > 200 µM

Compound: CCCCNC(=O)/C(C#N)=C/c1ccccc1C(F)(F)F
viability at 6 µM (HBZY-1 [1]): 65.6 to 96.4%
IC50 (HBZY-1 [23]): > 200 µM

Compound: COc1ccccc1NC(=O)/C(C#N)=C/c1cccc(C)c1
viability at 6 µM (HBZY-1 [1]): 65.6 to 96.4%
IC50 (HBZY-1 [23]): > 200 µM

Compound: COc1ccccc1NC(=O)/C(C#N)=C/c1ccc(C)cc1
viability at 6 µM (HBZY-1 [1]): 65.6 to 96.4%
IC50 (HBZY-1 [23]): > 200 µM

Compound: COc1ccc(/C=C(\C#N)C(=O)Nc2ccccc2OC)cc1
viability at 6 µM (HBZY-1 [1]): 65.6 to 96.4%
IC50 (HBZY-1 [23]): > 200 µM

Compound: COc1ccccc1NC(=O)/C=C/c1ccccc1C(F)(F)F
viability at 6 µM (HBZY-1 [1]): 65.6 to 96.4%
IC50 (HBZY-1 [23]): > 200 µM

Compound: COc1ccccc1NC(=O)/C(C#N)=C/c1ccccc1C
viability at 6 µM (HBZY-1 [1]): 65.6 to 96.4%
IC50 (HBZY-1 [23]): > 200 µM

Compound: COc1ccc(NC(=O)/C=C/c2ccccc2C(F)(F)F)cc1
viability at 6 µM (HBZY-1 [1]): 65.6 to 96.4%
IC50 (HBZY-1 [23]): > 200 µM

Compound: COc1ccccc1NC(=O)/C(C#N)=C/c1cccc([N+](=O)[O-])c1
viability at 6 µM (HBZY-1 [1]): 65.6 to 96.4%
IC50 (HBZY-1 [23]): > 200 µM

Compound: COc1ccc(CCNC(=O)/C=C/c2ccccc2C(F)(F)F)cc1OC
viability at 6 µM (HBZY-1 [1]): 65.6 to 96.4%
IC50 (HBZY-1 [23]): > 200 µM

Compound: C[S+]([O-])CCCCN=C=S (stereo unspecified) [SULFORAPHANE]
viability at 6 µM (HBZY-1 [1]): 80%

Compound: COc1cc(NC(=O)/C=C/c2ccccc2C(F)(F)F)cc(OC)c1OC
viability at 6 µM (HBZY-1 [1]): 65.6 to 96.4%
IC50 (HBZY-1 [23]): > 200 µM

Compound: COc1ccccc1NC(=O)/C(C#N)=C/c1ccc(OC)c(OC)c1
viability at 6 µM (HBZY-1 [1]): 78.4%
IC50 (HBZY-1 [23]): > 200 µM
